Data set [1] deals with rats. The data set can be described thus: Spatial delayed alternation task in a T maze (working memory). The data set is classed as in vivo, rat. On the procedure:
(§1) The influence of PKC activation on prefrontal cortical function was tested in rats and monkeys performing spatial working memory tasks that are critically dependant upon the integrity of the prefrontal cortex. All procedures were approved by the Yale Institutional Animal Care and Use Committee. Rats were trained on the spatial delayed alternation task in a T maze, or on a control task, spatial discrimination, which has similar motor and motivational demands but depends upon the posterior cortex and not the prefrontal cortex. Performance on the delayed alternation task is dependant upon the length of the delay between trials. The delay was raised as needed to maintain each individual animals performance at approximately 70% correct, allowing room for improvement or impairment in performance following drug administration.
Following behavioral training, rats were implanted with guide cannulae to allow drug infusions into the prefrontal cortex (stereotaxic coordinates from bregma and skull surface: anterior +3.2 mm, lateral ±0.75 mm, ventral −1.7 mm). The infusion needles projected 2.8 mm below the guide cannula such that the infusion site was −4.5 mm ventral to skull surface. Rats were allowed to recover for one week following surgery. Drug treatments were administered only after the animal achieved stable performance (60-80% correct) for two consecutive days. […] The PMA-induced working memory impairment was blocked by co-administration of chelerythrine, which had no effect on performance when administered alone (FIG. 10A). In contrast, PMA (5 picograms PMA/0.5 μl) had no effect on performance of the control spatial discrimination task (10 sec delays, mean performance after vehicle: 92.0%±11.0%, mean performance after PMA: 88.0%±13.0%, p=0.587, Tdep test).
(§2) NE α-1 adrenergic receptors are positively coupled to PKC through a Gq-protein linked to the PI intracellular signaling pathway (FIG. 1). Previous studies have shown that infusion of the α-1 adrenergic receptor agonist, phenylephrine, into the prefrontal cortex impairs working memory in both rats (Arnsten et al., 1999; FIGS. 2, 6 and 10B) and monkeys (Mao et al, 1999). Likewise, systemic injections of cirazoline, an α-1 adrenergic receptor agonist that crosses the blood brain barrier, impairs working memory in monkeys (FIGS. 5 and 10C). Thus, PKC was activated indirectly by infusing phenylephrine into the prefrontal cortex in rats (5 min prior to cognitive testing), or by systemic administration of cirazoline in monkeys (intramuscular injections, 30 min prior to cognitive testing). Monkeys had been previously trained on the spatial delayed response task, the task most commonly used to assess prefrontal cortical function in nonhuman primates. The PKC inhibitor, chelerythrine, was administered directly into the prefrontal cortex in rats (5 min prior to cognitive testing), or systemically in monkeys (oral administration, 60 min prior to cognitive testing).
(§3) The anxiogenic stressor, FG7142, was administered systemically to rats (interperitonial injection) or monkeys (intramuscular injection) 30 min prior to cognitive testing. Chelerythrine was administered directly into the prefrontal cortex in rats (15 min prior to cognitive testing), or systemically in monkeys (oral administration, 60 min prior to cognitive testing). […] This cognitive impairment was blocked by chelerythrine (FIGS. 11A and 11B), consistent with stress-induced activation of PKC.
(§4) Rats were injected with 0, 0.3, or 3.0 mg/kg chelerythrine s.c. in water approximately 45 minutes before cognitive testing; they receive an injection of the pharmacological stressor, FG7142 (15 mg/kg, i.p.) or vehicle 30 minutes prior to cognitive testing. All drug treatments occur at least one week apart, and the order of treatments is counterbalanced between animals. […] All ratings were performed by experimenters who were very familiar with the normative behavior of the animal but were unaware of the drug treatment conditions.

Data set [2] has as its system rhesus monkeys. Nature of the data set: Spatial delayed response task (working memory). The data set is classed as in vivo, rhesus monkey.
Excerpt: as §2, §3
(§5) Chelerythrine was administered orally to rhesus monkeys at doses of either […] or 0.3 mg/kg 60 min before cognitive testing, 30 minutes prior to stress exposure (FG7142 0.2-1.0 mg/kg, i.m.). In addition to cognitive testing, monkeys are also assessed for changes in sedation, agitation, aggression, motivation, food intake, and both fine and gross motor abilities. Four monkeys were tested.

Data set [3] has as its system rats. Nature of the data set: Response time per trial (stress-induced freezing) during delayed alternation testing. The data set is classed as in vivo, rat. How it is done: FIG. 11 illustrates a summary whereby treatment with chelerythrine reverses the detrimental effects of: A. stress in rats; or B. stress in monkeys. […] In A, the anxiogenic stressor, FG7142 (range: 10 to 20 mg/kg), impaired delayed alternation performance compared to vehicle treatment in rats (vehicle+vehicle vs. FG7142+vehicle: * ANOVA-R, F1,10=25.095, p=0.001). The FG7142-induced cognitive deficit was reversed by infusion of the PKC inhibitor, chelerythrine, into the prefrontal cortex 15 min prior to testing (0.3 μg/0.5 μl; FG7142+vehicle vs. FG7142+chelerythrine: † F1,10=10.170, p=0.010). […] The FG7142-induced cognitive deficit was reversed by pretreatment with the PKC inhibitor, chelerythrine (0.03 mg/kg; FG7142+vehicle vs. FG7142+chelerythrine: † F1,4=21.23, p=0.006).
For example, stressors such as FG7142 induce freezing behaviors in rodents that effectively lengthen the delays and increase the memory demands of the task (FIG. 11C).

Data set [4] concerns rats. The data set can be described thus: Behavioral observations for side effects in home cage and during cognitive testing. The data set is classed as in vivo, rat. The settings on record: 0.3 or 3.0 mg/kg s.c. How it is done:
as §4

The subject of data set [5] is rhesus monkeys. Nature of the data set: Assessment of sedation, agitation, aggression, motivation, food intake and motor abilities. The data set is classed as in vivo, rhesus monkey. The settings on record: oral 0.03 or 0.3 mg/kg. How it is done:
as §5

Data set [6] has as its system rats. The data set can be described thus: Spatial discrimination control task. The settings on record: 5 picograms PMA/0.5 μl. It is filed as in vivo, rat. On the procedure: as §1
Following behavioral training, rats were implanted with guide cannulae to allow drug infusions into the prefrontal cortex (stereotaxic coordinates from bregma and skull surface: anterior +3.2 mm, lateral ±0.75 mm, ventral −1.7 mm). The infusion needles projected 2.8 mm below the guide cannula such that the infusion site was −4.5 mm ventral to skull surface. Rats were allowed to recover for one week following surgery. Drug treatments were administered only after the animal achieved stable performance (60-80% correct) for two consecutive days. […]

Data set [7] deals with rats. The settings on record: cited from earlier work.
[8] abbreviates: co-infusion into prefrontal cortex, chelerythrine 0.3 μg/0.5 μl.

“Also recorded” adds a separate entry of the source.

`COc1ccc2c(c[n+](C)c3c4cc5c(cc4ccc23)OCO5)c1OC.[Cl-]` [chelerythrine, 1,2-dimethoxy-12-methyl[1,3]benzodioxolo[5,6-c]phenanthridinium]: the “effect on detrimental effects of stress exposure, lower systemic dose” value in the data set on rats [1] (0.3 mg/kg s.c., 45 min before testing, FG7142 15 mg/kg i.p., p=0.018, n=4) is on record as “significantly reversed”. Further, the “effect on cognitive deficits due to stress, higher systemic dose” value in the data set on rats [1] (3.0 mg/kg s.c., FG7142 15 mg/kg i.p.) was “did not reverse”. Besides, the “average correct, drug on its own” value with rats [1] (3.0 mg/kg s.c., no stressor, similar to vehicle) amounted to 72.5 % correct. Also, in the data set on rats [1] (setting [8]), the “effect on PMA-induced working memory deficit” value is listed as “reversed; also recorded: blocked” and the “effect on phenylephrine-induced working memory deficit” value is given as “significantly reversed”. The “effect on FG7142 (stress)-induced cognitive deficit” value in the data set with rats [1] (infusion into prefrontal cortex 0.3 μg/0.5 μl, 15 min prior to testing) is given as “significantly reversed”. Besides, in the data set on rats [1] (infusion into prefrontal cortex 3.0 μg/0.51 μl), the “effect on stress response (cognitive deficit), higher infused dose” value is reported as “did not reverse”. Moreover, the “performance when higher dose infused by itself” value with rats [1] (infusion into prefrontal cortex 3.0 μg/0.51 μl, no stress) is listed as “no effect”. Also, the “delayed alternation performance, drug on its own” value with rats [1] (infusion into prefrontal cortex, 0.3 μg/0.5 μl, no challenge) is listed as “no effect”. Also, the “effect on FG7142-induced cognitive deficit” value with rhesus monkeys [2] (monkeys, chelerythrine pretreatment 0.03 mg/kg) is “reversed”. Further, the “effect on cirazoline-induced working memory deficit” value in the data set on rhesus monkeys [2] (monkeys, chelerythrine pretreatment 0.03 mg/kg oral, 60 min prior to testing) is “reversed”. The “delayed response (cognitive) performance, drug on its own” value in the data set on rhesus monkeys [2] (monkeys, oral chelerythrine, no challenge) was “no effect”. Also, the “share of monkeys with complete protection at the lower dose” value in the data set on rhesus monkeys [2] (rhesus monkeys, 0.03 mg/kg oral, other half required 0.3 mg/kg for full reversal) is on record as “Half of the monkeys showed complete protection”. Besides, in the data set on rhesus monkeys [2] (rhesus monkeys, oral 0.03/kg or 0.3 mg/kg 60 min before testing, FG7142 0.2-1.0 mg/kg i.m., n=4, p<0.05), the “effect on detrimental effects of stress on prefrontal cortical function” value is given as “significantly reversed”. For the same compound, in the data set on rats [3] (chelerythrine infused into prefrontal cortex), the “effect on FG7142-induced increased response time” value was “not blocked; also recorded: no effect on response time”. Besides, the “side effects with administration by itself” value in the data set with rats [4] was “no significant side effects”. In the data set on rhesus monkeys [5], the “tolerability / side effects” value is “well-tolerated with no side effects”.

Consider `CNC(=O)c1cc2c(cn1)[nH]c1ccccc12` [FG7142, reference compound], for which the “delayed alternation performance after stressor vs vehicle” value in the data set on rats [1] (FG7142 10 to 20 mg/kg, 30 min prior to testing) was “impaired”. Further, the “delayed response performance after stressor vs vehicle” value in the data set on rhesus monkeys [2] (monkeys, FG7142 0.2 to 2.0 mg/kg injection) was “significantly impaired”. In addition, in the data set with rats [3] (FG7142), the “average response time for each trial after stressor vs vehicle” value is “increased response time”.

As for `c1ccc(C2CC2)c(OCC2=NCCN2)c1` [cirazoline, reference compound], the “delayed response performance after α-1 agonist vs vehicle” value in the data set on rhesus monkeys [2] (monkeys, cirazoline 0.001 to 10 μg/kg intramuscular, 30 min prior to testing) is reported as “significantly impaired”.

Take `CCCCCCCCCCCCCC(=O)O[C@@H]1[C@@H](C)[C@@]2(O)[C@@H](C=C(CO)C[C@]3(O)C(=O)C(C)=C[C@@H]23)[C@@H]2C(C)(C)[C@]12OC(C)=O` [PMA, phorbol 12-myristate 13-acetate]: the “delayed alternation performance after direct PKC activation vs vehicle” value with rats [1] (PMA infused into prefrontal cortex, 0.05 to 5 pg/0.5 μl, 10 min prior to testing) is recorded as “significantly impaired”. Besides, the “effect on performance of control spatial discrimination task” value in the data set on rats [6] was “no effect”. For the same compound, in the data set with rats [6] (10 sec delays, vehicle 92.0%±11.0%, p=0.587), the “mean performance on control spatial discrimination task” value is 88.0%±13.0%.

With `COc1ccccc1N1CCN(CCCNc2cc(=O)n(C)c(=O)n2C)CC1` [urapidil], in the data set on rats [7] (co-infusion of urapidil into prefrontal cortex), the “effect on phenylephrine-induced working memory impairment (FIG. 2)” value is on record as “prevented”. Besides, in the data set with rats [7] (urapidil infused into prefrontal cortex), the “effect on stress-induced working memory impairment (FIG. 3)” value is recorded as “prevented”.

Regarding `CNC[C@H](O)c1cccc(O)c1` [phenylephrine, reference compound], the “delayed alternation performance after α-1 agonist infusion vs vehicle” value in the data set with rats [1] (phenylephrine 0.1 μg/0.5 μl into prefrontal cortex, 5 min prior to testing) is on record as “significantly impaired”.

The values are drawn from US20050070565A1, “Chelerythrine, analogs thereof and their use in the treatment of bipolar disorder and other cognitive disorders” (priority 2003, published 2005).
